Source: PubChem BioAssay AID330 (DTP/NCI, 2004)
“And” between values parts separate entries of the source, which are not always exact repeats. Identical values can stand only once. Inconclusive results and toxic doses are left out. How the source made its calls: active means survival T/C of 150% or more; inactive means T/C below 125% in these data.

Test system: P388 leukemia ip, CD2F1 mice, survival T/C
Experiment: NCI In Vivo Anticancer Drug Screen. Data for tumor model P388 Leukemia (intraperitoneal) in CD2F1 (CDF1) mice
Conditions: endpoint: median survival time, higher = longer survival
In short: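 Mice carrying the transplanted tumor received test compound or vehicle. Survival was recorded in each group, and the value is the treated-group measurement divided by that of the vehicle-treated control group.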

[1] = dose: 50.0 mg/kg/injection, schedule: Q01DX009 (ip), vehicle: saline
[2] = dose: 12.5 mg/kg/injection, schedule: Q04DX003 (ip), vehicle: Klucel (hydroxypropylcellulose) (HPC)
[3] = dose: 25.0 mg/kg/injection, schedule: Q04DX003 (ip), vehicle: Klucel (hydroxypropylcellulose) (HPC)
[4] = dose: 100.0 mg/kg/injection, schedule: Q04DX003 (ip), vehicle: Klucel (hydroxypropylcellulose) (HPC)
[5] = dose: 50.0 mg/kg/injection, schedule: Q01DX009 (ip), vehicle: saline with Tween-80
[6] = dose: 100.0 mg/kg/injection, schedule: Q01DX009 (ip), vehicle: saline with Tween-80
[7] = dose: 50.0 mg/kg/injection, schedule: Q01DX005 (ip), vehicle: saline
[8] = dose: 12.5 mg/kg/injection, schedule: Q01DX009 (ip), vehicle: saline with Tween-80
[9] = dose: 25.0 mg/kg/injection, schedule: Q01DX009 (ip), vehicle: saline with Tween-80

Measured: T/C

COc1ccc(OC)c(C(=O)C=C(C(F)(F)F)C(F)(F)F)c1
inactive: dose: 25.0 mg/kg/injection, schedule: Q01DX009 (ip), vehicle: other 120 % of control | dose: 50.0 mg/kg/injection, schedule: Q04DX003 (ip), vehicle: other 113 % of control | dose: 66.0 mg/kg/injection, schedule: Q04DX003 (ip), vehicle: other 109 % of control | dose: 100.0 mg/kg/injection, schedule: Q01DX009 (ip), vehicle: other 95 % of control | dose: 100.0 mg/kg/injection, schedule: Q04DX003 (ip), vehicle: other 109 % of control | dose: 150.0 mg/kg/injection, schedule: Q04DX003 (ip), vehicle: other 113 % of control

FC(F)(F)c1cccc(C2CNCCO2)c1 (stereo not given)
inactive: dose: 12.5 mg/kg/injection, schedule: Q01DX009 (ip), vehicle: saline 100 % of control | dose: 25.0 mg/kg/injection, schedule: Q01DX009 (ip), vehicle: saline 105 % of control | [1] 100 % of control

C=C(C)C1C/C=C2/C(=O)OC(CC3(C)CC(=O)C(CC(=O)C1)O3)C2O (stereo not given)
inactive: dose: 4.0 mg/kg/injection, schedule: Q01DX009 (ip), vehicle: Klucel (hydroxypropylcellulose) (HPC) 101 % of control | dose: 8.0 mg/kg/injection, schedule: Q01DX009 (ip), vehicle: Klucel (hydroxypropylcellulose) (HPC) 101 % of control | dose: 16.0 mg/kg/injection, schedule: Q01DX009 (ip), vehicle: Klucel (hydroxypropylcellulose) (HPC) 104 % of control | dose: 32.0 mg/kg/injection, schedule: Q01DX009 (ip), vehicle: Klucel (hydroxypropylcellulose) (HPC) 101 % of control

O=C(O)CSc1cc(Cl)ccc1Cl
inactive: [2] 102 % of control | [3] 100 % of control | dose: 50.0 mg/kg/injection, schedule: Q04DX003 (ip), vehicle: Klucel (hydroxypropylcellulose) (HPC) 102 % of control | [4] 103 % of control

CC(C)NCC(O)CC(c1ccccc1)c1ccccc1 (stereo not given)
inactive: [5] 95 % of control | [6] 111 % of control

CC1CN(Cc2ccccc2)CCC1N1CCCCC1 (stereo not given)
inactive: [7] 99 % of control | dose: 100.0 mg/kg/injection, schedule: Q01DX005 (ip), vehicle: saline 100 % of control

N#CN=[N+]([O-])c1ccc(Br)cc1
inactive: dose: 6.25 mg/kg/injection, schedule: Q04DX003 (ip), vehicle: Klucel (hydroxypropylcellulose) (HPC) 108 % of control | [2] 108 % of control | [3] 90 % of control

O=C(O)c1cccnc1C(=O)O
inactive: [1] 105 % of control | dose: 100.0 mg/kg/injection, schedule: Q01DX009 (ip), vehicle: saline 96 % of control and 100 % of control and 111 % of control | dose: 200.0 mg/kg/injection, schedule: Q01DX009 (ip), vehicle: saline 86 % of control and 102 % of control and 97 % of control | dose: 400.0 mg/kg/injection, schedule: Q01DX009 (ip), vehicle: saline 100 % of control and 90 % of control

CC1=NN(C(=O)c2ccccc2)C(C)(C)C1
inactive: dose: 50.0 mg/kg/injection, schedule: Q01DX005 (ip), vehicle: Klucel (hydroxypropylcellulose) (HPC) 113 % of control | dose: 100.0 mg/kg/injection, schedule: Q01DX005 (ip), vehicle: Klucel (hydroxypropylcellulose) (HPC) 111 % of control | dose: 200.0 mg/kg/injection, schedule: Q01DX005 (ip), vehicle: Klucel (hydroxypropylcellulose) (HPC) 97 % of control

COc1cccc(C2SCC(=O)N2c2nncs2)c1[N+](=O)[O-] (stereo not given)
inactive: dose: 60.0 mg/kg/injection, schedule: Q01DX005 (ip), vehicle: saline with Tween-80 110 % of control | dose: 120.0 mg/kg/injection, schedule: Q01DX005 (ip), vehicle: saline with Tween-80 100 % of control | dose: 240.0 mg/kg/injection, schedule: Q01DX005 (ip), vehicle: saline with Tween-80 91 % of control

COc1ccc2sc(-c3ccccc3)cc(=O)c2c1CCl
inactive: dose: 100.0 mg/kg/injection, schedule: Q01DX001 (ip), vehicle: saline with Tween-80 94 % of control | dose: 200.0 mg/kg/injection, schedule: Q01DX001 (ip), vehicle: saline with Tween-80 97 % of control | dose: 400.0 mg/kg/injection, schedule: Q01DX001 (ip), vehicle: saline with Tween-80 100 % of control

CN(C)CCN(C)c1cccc2c1C(=O)c1cscc1C2=O
inactive: dose: 25.0 mg/kg/injection, schedule: Q01DX005 (ip), vehicle: saline 100 % of control | [7] 100 % of control and 92 % of control

OCCCCCCCCCCCC1C=CCC1 (stereo not given)
inactive: dose: 100.0 mg/kg/injection, schedule: Q01DX001 (ip), vehicle: saline 101 % of control | dose: 200.0 mg/kg/injection, schedule: Q01DX001 (ip), vehicle: saline 101 % of control | dose: 400.0 mg/kg/injection, schedule: Q01DX001 (ip), vehicle: saline 107 % of control

N#Cc1nnn(Cc2ccccc2)c1N
inactive: dose: 6.25 mg/kg/injection, schedule: Q01DX009 (ip), vehicle: saline with Tween-80 110 % of control | [8] 110 % of control | [9] 108 % of control | [5] 98 % of control and 86 % of control

Clc1ccccc1CN1COc2c(cc(Cl)c3cccnc23)C1
inactive: [4] 95 % of control | dose: 200.0 mg/kg/injection, schedule: Q04DX003 (ip), vehicle: Klucel (hydroxypropylcellulose) (HPC) 95 % of control | dose: 400.0 mg/kg/injection, schedule: Q04DX003 (ip), vehicle: Klucel (hydroxypropylcellulose) (HPC) 95 % of control

Cc1ccc(NC(=S)NCCc2ccccn2)cc1C
inactive: [8] 94 % of control | [9] 94 % of control | [5] 93 % of control | [6] 99 % of control and 92 % of control | dose: 200.0 mg/kg/injection, schedule: Q01DX009 (ip), vehicle: saline with Tween-80 100 % of control | dose: 400.0 mg/kg/injection, schedule: Q01DX009 (ip), vehicle: saline with Tween-80 105 % of control

CCOC(=O)/C(NC(=O)c1ccccc1)=C(\NC(=O)c1ccccc1)C(=O)OCC
inactive: dose: 60.0 mg/kg/injection, schedule: Q01DX005 (ip), vehicle: saline 104 % of control | dose: 120.0 mg/kg/injection, schedule: Q01DX005 (ip), vehicle: saline 96 % of control | dose: 240.0 mg/kg/injection, schedule: Q01DX005 (ip), vehicle: saline 96 % of control

O=C1OCCc2c1[nH]c1ccccc21
inactive: dose: 100.0 mg/kg/injection, schedule: Q04DX002 (ip), vehicle: saline with Tween-80 100 % of control | dose: 200.0 mg/kg/injection, schedule: Q04DX002 (ip), vehicle: saline with Tween-80 100 % of control

COc1cc(C/C=C/c2ccccc2)c(OC)cc1O
inactive: dose: 2.5 mg/kg/injection, schedule: Q01DX009 (ip), vehicle: saline with Tween-80 91 % of control | dose: 5.0 mg/kg/injection, schedule: Q01DX009 (ip), vehicle: saline with Tween-80 102 % of control | dose: 10.0 mg/kg/injection, schedule: Q01DX009 (ip), vehicle: saline with Tween-80 101 % of control

COc1ccc(/C=c2\sc3nc(-c4ccccc4)nn3c2=O)cc1
inactive: dose: 50.0 mg/kg/injection, schedule: Q01DX009 (ip), vehicle: Klucel (hydroxypropylcellulose) (HPC) 98 % of control | dose: 100.0 mg/kg/injection, schedule: Q01DX009 (ip), vehicle: Klucel (hydroxypropylcellulose) (HPC) 98 % of control

CN(CCC(=O)/C(=C\c1ccccc1)c1ccc(Cl)cc1)Cc1ccccc1
inactive: dose: 0.4 mg/kg/injection, schedule: Q01DX005 (ip), vehicle: saline with Tween-80 101 % of control | dose: 0.8 mg/kg/injection, schedule: Q01DX005 (ip), vehicle: saline with Tween-80 102 % of control | dose: 1.6 mg/kg/injection, schedule: Q01DX005 (ip), vehicle: saline with Tween-80 109 % of control | dose: 3.12 mg/kg/injection, schedule: Q01DX005 (ip), vehicle: saline with Tween-80 109 % of control | dose: 6.25 mg/kg/injection, schedule: Q01DX005 (ip), vehicle: saline with Tween-80 111 % of control
